The results in this text go back to US20030181401A1, “Insulin secretion promoter” (KYOWA HAKKO KOGYO CO., LTD., priority 2002, published 2003).

Several values for one entry are separate records, joined by “and”; a condition that tells them apart may be missing. Identical values can stand only once.

One assay concerns ICR mice. Briefly: Test Example 2: serum insulin in glucose tolerance test after 7-day oral dosing, normal mice. It is filed as in vivo. How it is done: Eleven male 9-week-old ICR mice as normal mice (SLC, Inc.) were fed a commercially available CE-2 (Clea Japan, Inc.) for one week, so as to accustom the mice to the environment.
After acclimation, an aqueous 10% solution of 2′-fucosyllactose was orally administered to the mice at 200 mg (2′-FL)/kg body weight in the morning and at 300 mg (2′-FL)/kg body weight in the evening. The same volume of saline was administered to the control group. The aqueous 2′-FL solution and saline were both dosed daily to the mice for 7 days.
During the dosing period, CE-2 was given together with drinking water ad libitum. […]
After the reaction, the plate was rinsed four times with the rinse solution. […] The absorbance of the reaction solution in the wells at 450 nm was read with a plate reader. Herein, a standard curve was prepared by using the standard insulin solution (mice, 200 ng/ml) attached to the kit as a standard solution to dilute the standard solution appropriately with the buffer solution attached to the kit for the same reaction as for the serum, and plotting the relation between the concentration and the absorbance (450 nm). Based on the prepared standard curve and the absorbance from the reaction with the serum, the insulin concentration in the serum was determined.

The subject of assay [1] is STZ-induced diabetic rats (Wistar). Description: Test Example 9: blood glucose in glucose tolerance test, Type I diabetes mellitus model. In kind it is in vivo. The procedure:
Male 7-week-old Wistar rats (Japan SLC, Inc.) were fed CE-2 (Clea Japan, Inc.) for one week, so as to accustom the rats to the environment.
After 18-hour starvation of the accustomed rats, […] of 50 mM citrate buffer, pH 4.5containing 15 mg of streptozotocin (WAKO Pure Chemical Industries, Inc.; abbreviated as “STZ” hereinafter) was prepared and administered to 25 mg (STZ)/kg body weight from their tail vein. Five days after the STZ administration, the rats were fasted for 18 hours. Blood was taken from puncture in the tail vein to assay blood glucose with a simple-type blood glucose assay apparatus Medisafe Reader GR-101 (Terumo, Co., Ltd.), to select 5 rats (Nos. 1, 3, 4, 5, 8) at mild state of diabetes mellitus with a blood glucose level of 200 mg/dl or less.
An aqueous 2% solution of 2′-fucosyllactose was prepared and administered to the rat No. 1 from the tail vein to 50 mg/kg body weight on a 2′-FL dose basis. 0.9% physiological saline was administered to rats Nos. 3, 4, 5 and 8. Two hours after 2′-FL dosing, an aqueous 40% glucose solution was orally administered to 1 g/kg body weight to the rats for glucose tolerance test. Zero minute and 30, 60, 120, and 240 minutes after glucose loading, blood was taken from a tail vein, to assay blood glucose with Medisafe Reader GR-101 and collect the serum.
12 days after the STZ dosing, the rats were fasted for 18 hours. An aqueous 2% solution of 2′-FL at 50 mg (2′-FL)/kg body weight was administered to rats Nos. 3, 4, 5 and 8 on a 2′-FL dose basis through their tail veins. To the rat No. 1 was administered 0.9% physiological saline. Two hours after 2′-FL dosing, an aqueous 40% glucose solution was orally administered to 1 g (glucose)/kg body weight to the rats, for glucose tolerance test. Zero minute and 30, 60, 120, and 240 minutes after glucose loading, blood was taken from a tail vein, to assay blood glucose with Medisafe Reader GR-101 and collect the serum.

2′-fucosyllactose [2′-FL]: in the assay on ICR mice (continuous daily oral dosing), the “insulin concentration 120 minutes after glucose loading compared with the control group (in words)” value is recorded as “increased”. Besides, in the assay with ICR mice (oral 200 + 300 mg/kg daily, 7 days, glucose 2 g/kg oral, 120 minutes, mean ± SD), the “Serum insulin concentration after glucose loading, 120 minutes” value is 0.35 ± 0.24 ng/mL. The “increase of blood glucose level (in words)” value in assay [1] (STZ-induced diabetic rats, glucose loading 2 hours after intravenous dosing) was “suppressed”. The “Blood glucose level after glucose loading, 0 minute” value in assay [1] (individual STZ rats Nos. 1, 3, 4, 5, 8, 50 mg/kg intravenous two hours before glucose 1 g/kg oral, 0 minute, 50 mg/kg) is 135 mg/dL and 186 mg/dL and 97 mg/dL and 134 mg/dL and 138 mg/dL. In addition, the “Blood glucose level after glucose loading, 30 minutes” value in assay [1] (individual STZ rats Nos. 1, 3, 4, 5, 8, 50 mg/kg intravenous two hours before glucose 1 g/kg oral, 30 minutes, 50 mg/kg) is 167 mg/dL and 273 mg/dL and 237 mg/dL and 162 mg/dL and 152 mg/dL. For the same substance, the “Blood glucose level after glucose loading, 60 minutes” value in assay [1] (individual STZ rats Nos. 1, 3, 4, 5, 8, 50 mg/kg intravenous two hours before glucose 1 g/kg oral, 60 minutes, 50 mg/kg) was 172 mg/dL and 355 mg/dL and 253 mg/dL and 154 mg/dL and 158 mg/dL. The “Blood glucose level after glucose loading, 120 minutes” value in assay [1] (individual STZ rats Nos. 1, 3, 4, 5, 8, 50 mg/kg intravenous two hours before glucose 1 g/kg oral, 120 minutes, 50 mg/kg) was 181 mg/dL and 342 mg/dL and 224 mg/dL and 161 mg/dL and 136 mg/dL. Also, in assay [1] (individual STZ rats Nos. 1, 3, 4, 5, 8, 50 mg/kg intravenous two hours before glucose 1 g/kg oral, 240 minutes, 50 mg/kg), the “Blood glucose level after glucose loading, 240 minutes” value was 146 mg/dl and 328 mg/dl and 139 mg/dl (2×) and 50 mg/dl. Moreover, the “Blood glucose level after glucose loading, −120 minutes” value in assay [1] (individual STZ rats Nos. 1, 3, 4, 5, 8, 50 mg/kg intravenous two hours before glucose 1 g/kg oral, −120 minutes, 50 mg/kg) was 108 mg/dL and 197 mg/dL and 122 mg/dL and 121 mg/dL and 117 mg/dL.
